The values below are quoted from earlier work in US12138235B2, “Cape-loaded targeted microvesicular cancer drug and method for developing the same” (YEDITEPE UNIVERSITESI, priority 2017, dated 2024).

The test system of data set [1] is SK-1 Hep1 liver cancer cell line. The conditions noted are these: combined treatment of CAPE 30 μg/ml and TRAIL.
In data set [2] the test system is TW2.6 oral squamous cell carcinoma cell line. To be noted: CAPE 100 μM.
Data set [3] concerns breast cancer stem cells. The conditions noted are these: CAPE 40 μM.
Data set [4] has as its system SH-SY5Y neuroblastoma cell line. The conditions noted are these: CAPE 4-20 μM.
For data set [5] the following is noted: rats, prophylactic administration.
Data set [6] deals with ME180 cervical cancer cell lines. The conditions noted are these: CAPE 50 μM.
For data set [7] the following is noted: rats.
Data set [8] deals with MCF-7, MDA-MB-231 and TNBC breast cancer cell lines. To be noted: CAPE 40 μM.
The test system of data set [9] is LNCaP, DU-145 and PC-3 prostate cancer cell lines.

As to `O=C(/C=C/c1ccc(O)c(O)c1)OCCc1ccccc1` [CAPE, caffeic acid phenethyl ester], the “caspase activation, cell death receptors, apoptosis” value in [1] is “caspase activation increased, cell death receptors were activated via JNK and p38 signaling pathways and apoptosis was induced”. Moreover, in data set [2], the “cell cycle phase populations and apoptosis” value is “decreased G1 phase cell population, increased G2/M phase cell population and induced apoptosis”. The “proliferation of breast cancer stem cells” value in data set [3] is given as “inhibits proliferation of breast cancer stem cells”. Also, the “effect in SH-SY5Y cells” value in data set [4] is “no effect was observed”. In addition, in data set [5], the “damage caused by doxorubicin in kidney, heart and brain tissues” value is recorded as “prevented the damage”; the “liver damage depending on administration of cisplatin and tamoxifen” value is “prevented the damage”. In [6], the “proliferation, cell cycle arrest, apoptosis” value is “prevents proliferation by inducing S and G2/M phase cell cycle arrests and induces apoptosis”. Also, the “radiation induced lung injury” value in [7] is on record as “decreased radiation induced lung injury”. The “cell proliferation, cell cycle arrest, apoptosis, angiogenesis” value in [8] was “dose-dependently stops cell proliferation, induces cell cycle arrest and apoptosis, and suppresses angiogenesis”. Moreover, the “cell proliferation and Akt signaling pathway” value in data set [9] is “dose-dependently inhibits cell proliferation”.
